Legend:
LDLR mRNA = LDLR mRNA stability after actinomycin D in HepG2 cells (Northern blot); assay type: cell-based, human; details: HepG2, berberine 15 hours then actinomycin D 5 μg/ml
Method: (§1) HepG2 cells were cultured and then left alone or treated with berberine for 15 hours. After 15 hours, actinomycin D (5 μg/ml) was added to cells at 0, 20, 40, 60, 90, 120, or 150 minutes. Total mRNA was isolated and analyzed by Northern blot for the amount of LDLR mRNA. […] In contrast, the mRNA stability of HMG-CoA reductase was not altered by berberine.

HMG-CoA reductase mRNA = HMG-CoA reductase mRNA stability in HepG2 cells; assay type: cell-based, human; details: HepG2, berberine 15 hours then actinomycin D
Method: as §1

LDLR mRNA 3'UTR = experiment: Luc-LDLR 3'UTR chimeric transcripts in transfected HepG2 cells; assay type: cell-based, human; details: transfected HepG2, berberine eight hours
Description: Three consecutive fragments of LDLR 3 ′UTR were inserted into a cytomegalovirus promoter driven Luc plasmid (pLuc) at the 3′ end of the Luc coding sequence before the SV40 polyadenylation signal. The wild-type Luc reporter plasmid pLuc was constructed by insertion of the Luc cDNA into the HindIII and Xba sites of pcDNA3.1/Zeo(+). Addition of the LDLR 3/UTR was accomplished by PCR amplifying different regions of the 2.5 kb 3′UTR of LDLR mRNA using XbaI-tailed primers and pLDLR3 as the template. The wild type pLuc and the chimeric plasmids pLuc-UTR-2, UTR-3 and UTR-4 were transfected into HepG2 cells (FIG. 11). Cells seeded in culture dishes were transiently transfected with the chimeric plasmids. Twenty-four hours after transfection, cells were trypsinized and reseeded equally into two dishes for each plasmid transfection. After overnight incubation, one dish was treated with dimethylsulfoxide as the solvent control and another was treated with berberine for eight hours. […]
To create ARE deletion constructs, an Apa site at nt 3,384 was generated for deleting ARE3, and an Apa1 site at nt 3,334 for deleting ARE2 by site-directed mutagenesis using pLuc/UTR-2 as the template. […] The effects of berberine on the chimeric Luc transcripts were determined by measuring Luc mRNA using a quantitative real-time RT-PCR assay. […]

in vivo [1] = experiment: in vivo; design: species or system canine (beagle); details: beagle, dog
Method: In parallel animal model studies, four canine (beagle) subjects were given 45 mg/kg of berberine orally. Serum concentrations of the drug were determined by HPLC at 2 and 3 hours after administration. […] After the berberine had cleared the system, the same dog was then administered 700 mg/kg of berberine and blood samples were taken 2, 3, 5, 7, 9 and 24 hours after administration resulting in concentrations of 21.51, 44.89, 49.54, 36.35, 27.83, and 16.01 ηg/ml respectively.

in vivo [2] = details: beagle, dog, iv, 100 mg/kg
Method: Four beagles were injected intravenously with 100 mg/kg of berberine. Using a two compartment model, the pharmacokinetic parameter estimates were as follows: […]

[3] = Toxicity analysis (LD50) in rats; details: rat, in vivo
Method: Rats and mice were administered berberine through a variety of techniques, including orally, through subcutaneous injection, peritoneal injection and intravenous injection.

PKC = PKC activity in rat liver (PepTag assay); assay type: in vivo; details: berberine treated rats
Method: The livers were dissected and stored in liquid nitrogen for RNA extraction, real-time RT-PCR and PKC activity assay. Total blood samples were also collected to assay fasting blood glucose and serum insulin levels. The insulin levels were analyzed using radio-immunoassay (Linco Research, St Charles, Mo.). The insulin sensitivity indexes (ISI) were calculated according to the formula: 10^4/(fasting serum insulin X fasting blood glucose) (Hanson, Am. J. Epidemiol. 15 1(2), 190-198 (2000)). The insulin level and ISI of normal rats were also determined for comparison. […] It also elevated the fasting blood glucose from 7 to 12.8 mmol/L (P<0.001).
PKC activity was analyzed using the PepTag® Assay for Non-Radioactive Detection of Protein Kinase-C or cAMP-Dependent Protein Kinase kit (Promega) according to the protocol. Briefly, after homogenization and partial purification, […] was mixed with 5 μl of PepTag® Cl peptide (specific substrate of PKC), 5 μl of reaction buffer and 5 μl of PKC activator solution in a 25 μl reaction system. […] They were transferred to a 96-well plate and quantified using densitometry according to the supplier's protocol. The catalytic activity of total PKC of a specific sample was expressed as pmol/min/mg, representing the number of picomoles of phosphate transferred to the substrate per minute per milligram of proteins of the sample.

With COc1ccc2cc3[n+](cc2c1OC)CCc1cc2c(cc1-3)OCO2 [berberine] the “prolongation of turnover rate of LDLR transcript” value (LDLR mRNA) was “approximately threefold”, the “mRNA stability of HMG-CoA reductase” value (HMG-CoA reductase mRNA) was “not altered” and the “expressions of LucUTR-3 and Luc-UTR-4 or the wild type” value (LDLR mRNA 3'UTR) was “without affecting”. The “increase of level of Luc-UTR-2 mRNA” value (LDLR mRNA 3'UTR) was 2.5 fold, the concentration at 2 hours (in vivo [1]; 280 mg/kg) was 31.4 µg/mL and the serum concentration (in vivo [1]; 280 mg/kg, 3 hours) was 22.6 ηg. It also gave a concentration at 2 hours (in vivo [1]; 700 mg/kg) of 0.0215 µg/mL, a concentration at 3 hours (in vivo [1]; 700 mg/kg) of 0.0449 µg/mL and a concentration at 5 hours (in vivo [1]; 700 mg/kg) of 0.0495 µg/mL. For the same molecule, the concentration at 7 hours (in vivo [1]; 700 mg/kg) was 0.0364 µg/mL, the concentration at 9 hours (in vivo [1]; 700 mg/kg) was 0.0278 µg/mL and the concentration at 24 hours (in vivo [1]; 700 mg/kg) was 0.016 µg/mL. The AUC (in vivo [2]) was 1.98 ± 1.14 µg·h/mL, the clearance (in vivo [2]) was 1010 mL/min and the half-life (in vivo [2]) was 12.6 ± 8.83 h. For the same molecule, the LD50 ([3]; intraperitoneal, peritoneal injection) was 138 to 146 mg/kg, the LD50 ([3]; intravenous injection) was 46.2 to 63.3 mg/kg and the LD50 ([3]; oral dose) was over 15000 mg/kg. For the same molecule, the LD50 ([3]; sc, subcutaneous injection) was 7970 to 10700 mg/kg and the “activity of PKC in the livers” value (PKC) was “increased activity of PKC”.

Reference: patent US20080081781A1, “Methods and compositions for the treatment of metabolic syndrome” (priority 2004, published 2008)
